Laboratory results reported in PubChem BioAssay AID330 (DTP/NCI, 2004).
Where “and” joins values, the source holds several entries; their conditions need not be identical. Equal values may be shown once. Toxic doses and inconclusive results are not listed.

Test system: P388 leukemia ip, CD2F1 mice, survival T/C
Test: NCI In Vivo Anticancer Drug Screen. Data for tumor model P388 Leukemia (intraperitoneal) in CD2F1 (CDF1) mice
Settings: endpoint: median survival time, higher = longer survival
How it was run: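 Mice carrying the transplanted tumor received test compound or vehicle. Survival was recorded in each group, and the value is the treated-group measurement divided by that of the vehicle-treated control group.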

[1] = dose: 25.0 mg/kg/injection, schedule: Q01DX009 (ip), vehicle: water
[2] = dose: 50.0 mg/kg/injection, schedule: Q01DX009 (ip), vehicle: water
[3] = dose: 60.0 mg/kg/injection, schedule: Q01DX005 (ip), vehicle: saline with Tween-80
[4] = dose: 12.5 mg/kg/injection, schedule: Q01DX005 (ip), vehicle: saline with Tween-80
[5] = dose: 25.0 mg/kg/injection, schedule: Q01DX005 (ip), vehicle: saline with Tween-80
[6] = dose: 50.0 mg/kg/injection, schedule: Q01DX005 (ip), vehicle: saline with Tween-80
[7] = dose: 50.0 mg/kg/injection, schedule: Q01DX005 (ip), vehicle: saline
[8] = dose: 100.0 mg/kg/injection, schedule: Q01DX005 (ip), vehicle: saline

Compound: OCC1OC(n2cc(I)c3c2ncn2nnnc32)C(O)C1O (stereo not given)
- T/C (dose: 3.13 mg/kg/injection, schedule: Q01DX009 (ip), vehicle: water): 99 % of control
- T/C (dose: 6.25 mg/kg/injection, schedule: Q01DX009 (ip), vehicle: water): 100 % of control
- T/C (dose: 12.5 mg/kg/injection, schedule: Q01DX009 (ip), vehicle: water): 97 % of control
- T/C [1]: 97 % of control
- T/C [2]: 89 % of control

Compound: CN(C)c1ccc2c(c1)c1cc(N(C)C)ccc1n2Cc1ccccc1
- T/C [3]: 102 % of control
- T/C (dose: 120.0 mg/kg/injection, schedule: Q01DX005 (ip), vehicle: saline with Tween-80): 94 % of control
- T/C (dose: 240.0 mg/kg/injection, schedule: Q01DX005 (ip), vehicle: saline with Tween-80): 98 % of control

Compound: O=NNc1ccncc1
- T/C (dose: 6.25 mg/kg/injection, schedule: Q01DX005 (ip), vehicle: saline): 109 % of control
- T/C (dose: 12.5 mg/kg/injection, schedule: Q01DX005 (ip), vehicle: saline): 122 % of control
- T/C (dose: 25.0 mg/kg/injection, schedule: Q01DX005 (ip), vehicle: saline): 120 % of control

Compound: CN(CC(N)=O)C(=O)N(CCCl)N=O
- T/C (dose: 15.0 mg/kg/injection, schedule: Q01DX005 (ip), vehicle: saline with Tween-80): 160 % of control
- T/C (dose: 30.0 mg/kg/injection, schedule: Q01DX005 (ip), vehicle: saline with Tween-80): 201 % of control
- T/C [3]: 263 % of control

Compound: CN(C)c1ccc(/C=N/c2nc(-c3ccccc3)cs2)cc1
- T/C (dose: 50.0 mg/kg/injection, schedule: Q01DX009 (ip), vehicle: saline): 115 % of control
- T/C (dose: 100.0 mg/kg/injection, schedule: Q01DX009 (ip), vehicle: saline): 111 % of control
- T/C (dose: 200.0 mg/kg/injection, schedule: Q01DX009 (ip), vehicle: saline): 101 % of control

Compound: COc1cccc(C)c1C1CC2CCCN2O1 (stereo not given)
- T/C (dose: 50.0 mg/kg/injection, schedule: Q01DX009 (ip), vehicle: Klucel (hydroxypropylcellulose) (HPC)): 105 % of control
- T/C (dose: 100.0 mg/kg/injection, schedule: Q01DX009 (ip), vehicle: Klucel (hydroxypropylcellulose) (HPC)): 106 % of control
- T/C (dose: 200.0 mg/kg/injection, schedule: Q01DX009 (ip), vehicle: Klucel (hydroxypropylcellulose) (HPC)): 89 % of control

Compound: CN1C(c2ccccc2)CC(=C(C#N)c2ccccc2)CC1c1ccccc1 (stereo not given)
- T/C (dose: 30.0 mg/kg/injection, schedule: Q01DX005 (ip), vehicle: Klucel (hydroxypropylcellulose) (HPC)): 103 % of control
- T/C (dose: 60.0 mg/kg/injection, schedule: Q01DX005 (ip), vehicle: Klucel (hydroxypropylcellulose) (HPC)): 107 % of control
- T/C (dose: 120.0 mg/kg/injection, schedule: Q01DX005 (ip), vehicle: Klucel (hydroxypropylcellulose) (HPC)): 93 % of control
- T/C (dose: 240.0 mg/kg/injection, schedule: Q01DX005 (ip), vehicle: Klucel (hydroxypropylcellulose) (HPC)): 104 % of control

Compound: CC(=O)Nc1ccc(C(C)=O)cc1
- T/C (dose: 50.0 mg/kg/injection, schedule: Q01DX009 (ip), vehicle: saline with Tween-80): 93 % of control
- T/C (dose: 100.0 mg/kg/injection, schedule: Q01DX009 (ip), vehicle: saline with Tween-80): 89 % of control
- T/C (dose: 200.0 mg/kg/injection, schedule: Q01DX009 (ip), vehicle: saline with Tween-80): 94 % of control

Compound: Nc1cccc(CCCCc2cccc(S(=O)(=O)F)c2)c1
- T/C (dose: 50.0 mg/kg/injection, schedule: Q01DX009 (ip), vehicle: saline sonified): 100 % of control
- T/C (dose: 100.0 mg/kg/injection, schedule: Q01DX009 (ip), vehicle: saline sonified): 109 % of control
- T/C (dose: 200.0 mg/kg/injection, schedule: Q01DX009 (ip), vehicle: saline sonified): 109 % of control

Compound: CCOC(=O)C(NC(N)=O)C(=O)OCC
- T/C [1]: 89 % of control
- T/C [2]: 99 % of control
- T/C (dose: 100.0 mg/kg/injection, schedule: Q01DX009 (ip), vehicle: water): 100 % of control
- T/C (dose: 200.0 mg/kg/injection, schedule: Q01DX009 (ip), vehicle: water): 105 % of control
- T/C (dose: 400.0 mg/kg/injection, schedule: Q01DX009 (ip), vehicle: water): 91 % of control

Compound: Cc1cc(C)cc(C(=O)NC(=C(NC(=O)c2cc(C)cc(C)c2)c2ccncc2)c2ccncc2)c1 (mixture of isomers)
- T/C [4]: 96 % of control
- T/C [5]: 90 % of control
- T/C [6]: 86 % of control and 90 % of control

Compound: O=C1OC(c2ccccc2)=N/C1=C\c1ccc(/C=C2/N=C(c3ccccc3)OC2=O)cc1
- T/C (dose: 100.0 mg/kg/injection, schedule: Q04DX002 (ip), vehicle: saline with Tween-80): 100 % of control
- T/C (dose: 200.0 mg/kg/injection, schedule: Q04DX002 (ip), vehicle: saline with Tween-80): 104 % of control
- T/C (dose: 400.0 mg/kg/injection, schedule: Q04DX002 (ip), vehicle: saline with Tween-80): 95 % of control

Compound: C=C1C(=O)OC2C(OC(C)=O)C(C(=O)OC)CC(O)C/C(CO)=C\C(OC(=O)/C(C)=C/C)C12 (stereo not given)
- T/C (dose: 2.0 mg/kg/injection, schedule: Q01DX009 (ip), vehicle: Klucel (hydroxypropylcellulose) (HPC)): 115 % of control
- T/C (dose: 4.0 mg/kg/injection, schedule: Q01DX009 (ip), vehicle: Klucel (hydroxypropylcellulose) (HPC)): 108 % of control
- T/C (dose: 8.0 mg/kg/injection, schedule: Q01DX009 (ip), vehicle: Klucel (hydroxypropylcellulose) (HPC)): 110 % of control
- T/C (dose: 16.0 mg/kg/injection, schedule: Q01DX009 (ip), vehicle: Klucel (hydroxypropylcellulose) (HPC)): 100 % of control

Compound: c1ccc(CCNc2ncnc3nc[nH]c23)cc1
- T/C (dose: 12.5 mg/kg/injection, schedule: Q01DX009 (ip), vehicle: other): 102 % of control
- T/C (dose: 25.0 mg/kg/injection, schedule: Q01DX009 (ip), vehicle: other): 101 % of control
- T/C (dose: 50.0 mg/kg/injection, schedule: Q01DX009 (ip), vehicle: other): 100 % of control
- T/C (dose: 100.0 mg/kg/injection, schedule: Q01DX009 (ip), vehicle: other): 101 % of control
- T/C (dose: 200.0 mg/kg/injection, schedule: Q01DX009 (ip), vehicle: other): 102 % of control

Compound: CN(C)P1(=O)NCC(C)(C)CO1 (stereo not given)
- T/C [7]: 104 % of control
- T/C [8]: 96 % of control
- T/C (dose: 200.0 mg/kg/injection, schedule: Q01DX005 (ip), vehicle: saline): 96 % of control

Compound: CC(Cl)CN=NNc1ccc(C#N)cc1 (stereo not given)
- T/C (dose: 12.5 mg/kg/injection, schedule: Q01DX009 (ip), vehicle: distilled water + Tween-80): 99 % of control
- T/C (dose: 25.0 mg/kg/injection, schedule: Q01DX009 (ip), vehicle: distilled water + Tween-80): 100 % of control
- T/C (dose: 50.0 mg/kg/injection, schedule: Q01DX009 (ip), vehicle: distilled water + Tween-80): 100 % of control
- T/C (dose: 100.0 mg/kg/injection, schedule: Q01DX009 (ip), vehicle: distilled water + Tween-80): 104 % of control
- T/C (dose: 200.0 mg/kg/injection, schedule: Q01DX009 (ip), vehicle: distilled water + Tween-80): 119 % of control

Compound: CCC1CCC2CCOCN2C1 (stereo not given)
- T/C [7]: 97 % of control
- T/C [8]: 94 % of control

Compound: O=C1CN(c2ccccc2)CC(=O)N2CCCN12
- T/C [4]: 100 % of control
- T/C [5]: 96 % of control
- T/C [6]: 100 % of control

Compound: C(=C\c1ccnc2c1ccc1ccccc12)/c1ccccc1
- T/C [4]: 96 % of control
- T/C [5]: 96 % of control
- T/C [6]: 90 % of control
- T/C (dose: 100.0 mg/kg/injection, schedule: Q01DX005 (ip), vehicle: saline with Tween-80): 88 % of control
- T/C (dose: 200.0 mg/kg/injection, schedule: Q01DX005 (ip), vehicle: saline with Tween-80): 88 % of control

Compound: O=[N+]([O-])c1ccc(Sc2ncccn2)c([N+](=O)[O-])c1
- T/C (dose: 50.0 mg/kg/injection, schedule: Q01DX009 (ip), vehicle: suspension in saline): 103 % of control
- T/C (dose: 100.0 mg/kg/injection, schedule: Q01DX009 (ip), vehicle: suspension in saline): 88 % of control
- T/C (dose: 200.0 mg/kg/injection, schedule: Q01DX009 (ip), vehicle: suspension in saline): 91 % of control

Compound: Cc1cc2[nH]c(Cl)c(/C=N/NC(N)=S)c2cc1O
- T/C (dose: 100.0 mg/kg/injection, schedule: Q01DX001 (ip), vehicle: Klucel (hydroxypropylcellulose) (HPC)): 99 % of control
- T/C (dose: 200.0 mg/kg/injection, schedule: Q01DX001 (ip), vehicle: Klucel (hydroxypropylcellulose) (HPC)): 99 % of control
- T/C (dose: 400.0 mg/kg/injection, schedule: Q01DX001 (ip), vehicle: Klucel (hydroxypropylcellulose) (HPC)): 97 % of control

Compound: CCCCCCCCC1OC1CCCCCCCC(=O)O (stereo not given)
- T/C (dose: 3.13 mg/kg/injection, schedule: Q01DX009 (ip), vehicle: saline with Tween-80): 112 % of control
- T/C (dose: 6.25 mg/kg/injection, schedule: Q01DX009 (ip), vehicle: saline with Tween-80): 100 % of control
- T/C (dose: 12.5 mg/kg/injection, schedule: Q01DX009 (ip), vehicle: saline with Tween-80): 103 % of control
- T/C (dose: 25.0 mg/kg/injection, schedule: Q01DX009 (ip), vehicle: saline with Tween-80): 95 % of control

Compound: SC1(S)CN2CCC1CC2
- T/C (dose: 6.25 mg/kg/injection, schedule: Q01DX009 (ip), vehicle: saline): 104 % of control
- T/C (dose: 12.5 mg/kg/injection, schedule: Q01DX009 (ip), vehicle: saline): 100 % of control
